The values below come from ChEMBL document CHEMBL1201862, “PubChem BioAssay data set” (2004).

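All cell lines were grown in 96-well plates and treated with compound for 48 hours. GI50 marks 50% less growth.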 Calls of active or inactive are those of the source. Rule as the data show it: active = GI50 up to about 1.1 µM and inactive = higher. Where only a bound is given, the exact number is not on record here.

Common to all, as to test: growth of human tumour cells (NCI), 48 h
The subject of experiment [1] is HOP-92.
The subject of experiment [2] is RXF 393.
Experiment [3] has as its system SK-OV-3.
Experiment [4] relates to SF-268.
The subject of experiment [5] is OVCAR-4.
For experiment [6], the system named is Hs-578T.
Experiment [7] deals with SK-MEL-2.
The subject of experiment [8] is TK-10.
The test system of experiment [9] is 786-0.
The subject of experiment [10] is HCT-15.
In experiment [11] the test system is SK-MEL-28.
The test system of experiment [12] is T47D.
Experiment [13] concerns HOP-62.
Experiment [14] relates to IGROV-1.
Experiment [15] deals with EKVX.
For experiment [16], the system named is NCI-H226.
Experiment [17] has as its system M14.
For experiment [18], the system named is NCI/ADR-RES.
Experiment [19] deals with SF-539.
The test system of experiment [20] is NCI-H460.

In the case of `CC(C)(C)OC(=O)CCC1NC(=O)[C@@H]2Cc3c([nH]c4ccccc34)C(C3CCCCC3)N2C1=O` (stereo not given in full), the GI50 in experiment [1] was 33.2 µM (inactive); in [2], 20 µM (inactive); in [3], 44.6 µM (inactive); in experiment [4], 31.4 µM (inactive); in experiment [5] it was 28.8 µM (inactive); in experiment [6], 20.8 µM (inactive). The GI50 in [7] is 22.8 µM (inactive); in experiment [8], 34.7 µM (inactive); in [9], 35.3 µM (inactive); in [10], 34.6 µM; in [11] it was 68.9 µM (inactive); in experiment [12] it was 27.9 µM (inactive). Further, the GI50 in [13] is 35.6 µM (inactive); in experiment [14], 36.8 µM (inactive); in [15], 41.7 µM (inactive); in [16], 36.2 µM (inactive); in experiment [17] it was 27.4 µM (inactive); in [18] it was 48.8 µM (inactive).

Take `COc1ccccc1-c1cc(=O)c2ccccc2n1C1CC1`: the GI50 in [1] was 1.78 µM (inactive); in experiment [2] it was 1.84 µM (inactive); in [3], 6.73 µM (inactive); in experiment [4], 5.01 µM (inactive); in [19] it was 4.6 µM (inactive); in experiment [6], 5.3 µM (inactive). Moreover, the GI50 was 2.69 µM (inactive) in [7]; 3.99 µM (inactive) in [9]; 2.55 µM in [10]; 2.37 µM (inactive) in [12]; 3.95 µM (inactive) in [13]; 4.43 µM (inactive) in [14]. The GI50 is 2.74 µM (inactive) in [20], 2.42 µM (inactive) in experiment [16], 4.4 µM (inactive) in experiment [17] and 5.38 µM (inactive) in experiment [18].

On to `CN(C)Cc1cc(/N=N/c2ccc(Cl)cc2)cc(CN(C)C)c1O`, for which the GI50 in experiment [1] is 2.45 µM (inactive); in [2] it was 9.44 µM (inactive); in experiment [3] it was 17.1 µM (inactive); in experiment [4], 10.8 µM (inactive); in [19], 10 µM (inactive); in experiment [6], 11.3 µM (inactive). Besides, the GI50 is 12.9 µM (inactive) in [7]; 5.94 µM (inactive) in experiment [8]; 5.53 µM (inactive) in experiment [9]; 6.52 µM in experiment [10]; 11.7 µM (inactive) in experiment [11]; 10.5 µM (inactive) in experiment [12]. The GI50 is 2.58 µM (inactive) in [13]; 3.38 µM (inactive) in [14]; > 10 µM (inactive) in [15]; 5.15 µM (inactive) in experiment [20]; 4.39 µM (inactive) in [16]; 14.5 µM (inactive) in experiment [17]. Further, in experiment [18], the GI50 was 3.07 µM (inactive).

Turning to `O=S(=O)(c1ccccc1)[C@@H]1[C@H]2C=C[C@](CS)(O2)[C@H]1S(=O)(=O)c1ccccc1`, the GI50 is > 100 µM (inactive) in [1]; 43.6 µM (inactive) in experiment [2]; > 100 µM (inactive) in experiment [3]; > 100 µM (inactive) in [4]; 42.1 µM (inactive) in [5]; > 100 µM (inactive) in experiment [6]. For the same compound, the GI50 in experiment [8] is > 100 µM (inactive); in experiment [9], 30 µM (inactive); in [10] it was 15.2 µM; in experiment [11], > 100 µM (inactive); in [12], 84.3 µM (inactive); in [13], > 100 µM (inactive). The GI50 in [14] is > 100 µM (inactive); in experiment [15], 78.9 µM (inactive); in [20], > 100 µM (inactive); in experiment [16] it was > 100 µM (inactive); in [17], > 100 µM (inactive); in [18], 53.5 µM (inactive).

For the compound `C[N+]1=C2[B-](C(C)(C)C)=[N+](C(C)(C)C)[B-]2(C(C)(C)C)[N+](C)=C2[B-](C(C)(C)C)=[N+](C(C)(C)C)[B-]21C(C)(C)C` (stereo not given), the GI50 in experiment [1], in experiment [2], in [3], in experiment [4], in experiment [5] and in experiment [6] was > 100 µM (inactive) throughout. For the same compound, the GI50 in experiment [7] is > 100 µM (inactive); in experiment [8], > 100 µM (inactive); in experiment [9], > 100 µM (inactive); in experiment [10] it was over 100 µM; in experiment [11], > 100 µM (inactive); in experiment [12] it was > 100 µM (inactive). Also, the GI50 in [13], in [14], in experiment [15], in [20], in experiment [16] and in [17] was > 100 µM (inactive) throughout. In addition, in [18], the GI50 is > 100 µM (inactive).

Take `Cc1ccsc1/C=N/Nc1ncccn1`: the GI50 in experiment [1], in experiment [2], in experiment [3], in [4], in experiment [5] and in [6] was > 100 µM (inactive) throughout. Besides, the GI50 in experiment [7] is > 100 µM (inactive); in [8] it was > 100 µM (inactive); in [9], > 100 µM (inactive); in [10], over 100 µM; in experiment [11], > 100 µM (inactive); in [12], > 100 µM (inactive). For the same compound, the GI50 in [13], in [14], in [15], in experiment [16], in [17] and in experiment [18] was > 100 µM (inactive) throughout.

Take `COC(=O)C(NC(=O)c1ccccc1)c1ccco1` (stereo not given): the GI50 in [1], in experiment [2], in experiment [3], in [4], in experiment [19] and in [6] was > 100 µM (inactive) each time. Moreover, the GI50 was > 100 µM (inactive) in [8]; > 100 µM (inactive) in experiment [9]; over 100 µM in experiment [10]; > 100 µM (inactive) in experiment [11]; > 100 µM (inactive) in experiment [12]; > 100 µM (inactive) in experiment [13]. The GI50 in experiment [14], in experiment [15], in [20], in [16], in experiment [17] and in experiment [18] was > 100 µM (inactive) each time.

On to `OCCNc1ncnc2[nH]cnc12`, for which the GI50 in [1], in [2], in experiment [3], in [4], in experiment [5] and in [6] was > 100 µM (inactive) throughout. The GI50 was > 100 µM (inactive) in experiment [7]; > 100 µM (inactive) in experiment [8]; > 100 µM (inactive) in experiment [9]; over 100 µM in [10]; > 100 µM (inactive) in experiment [11]; > 100 µM (inactive) in experiment [12]. For the same compound, the GI50 in [13], in experiment [14], in experiment [15], in experiment [20], in experiment [16] and in experiment [17] was > 100 µM (inactive) throughout. Further, the GI50 in [18] was > 100 µM (inactive).
